Experimental data published in patent US9302981B2, “Synthesis, methods of using, and compositions of cycloalkylmethylamines” (Reviva Pharmaceuticals, Inc., priority 2006, dated 2016).

Legend:
[1] = molecular target: human recombinant dopamine transporter (DAT) (Homo sapiens (Human), UniProt Q01959); assay: Radioligand binding assay, dopamine transporter (MDS Pharma); details: for nH (Hill coefficient): DAT, slope of the competitive binding curve
Description: (§1) The monoamine transporters inhibitory activities of selected compounds (54b and 54d) are reported herein. The compounds were evaluated at MDS Pharma services (22011 Drive SE, Bothell, Wash. 98021, USA) using well established radioligand binding assays protocols (Galli, A. et al., J. Exp. Biol. 1995, 198, 2197-2212; Giros, B. et al., Trends Pharmcol. Sci. 1993, 14, 43-49; Gu, H. et al., J. Biol. Chem. 1994, 269(10), 7124-7130; Shearman, L. P. et al, Am. J. Physiol., 1998, 275 (6 Pt 1), C1621-1629; Wolf, W. A. et al., J. Biol. Chem. 1992, 267(29), 20820-20825). The human recombinant transporter proteins dopamine (DAT), norepinephrine (NET) and serotonin (SERT) were selected for the in vitro assays. The CHO-K1 cells expressed with human recombinant dopamine transporter (DAT) (MDS catalog 220320) was used for evaluating the dopamine transporter inhibitory activity. Whereas, MDCK cells expressed with human recombinant transporters norepinephrine (NET) (MDS catalog no. 204410) and serotonin (SERT) (MDS catalog no. 274030) were used for evaluating the norepinephrine transporter (NET) and serotonin transporter (SERT) inhibitory activities, respectively. The radioligand binding assays were carried out at four different test concentrations and the test concentrations were 1 nM, 10 nM, 0.1 μM, and 1 μM.
(§2) The assays were carried out in duplicates and the quantitative data are reported as IC50, Ki, and nH. Where presented, IC50 values were determined by a non-linear, least squares regression analysis using MathIQ™ (ID Business Solutions Ltd. UK). […] Where presented, the Hill coefficient (nH), defining the slope of the competitive binding curve, was calculated using MathIQ™.

[2] = molecular target: human recombinant norepinephrine transporter (NET) (Homo sapiens (Human), UniProt P23975); assay: Radioligand binding assay, norepinephrine transporter (MDS Pharma); details: for nH (Hill coefficient): NET, slope of the competitive binding curve
human recombinant norepinephrine transporter (NET), sequence (P23975 whole entry): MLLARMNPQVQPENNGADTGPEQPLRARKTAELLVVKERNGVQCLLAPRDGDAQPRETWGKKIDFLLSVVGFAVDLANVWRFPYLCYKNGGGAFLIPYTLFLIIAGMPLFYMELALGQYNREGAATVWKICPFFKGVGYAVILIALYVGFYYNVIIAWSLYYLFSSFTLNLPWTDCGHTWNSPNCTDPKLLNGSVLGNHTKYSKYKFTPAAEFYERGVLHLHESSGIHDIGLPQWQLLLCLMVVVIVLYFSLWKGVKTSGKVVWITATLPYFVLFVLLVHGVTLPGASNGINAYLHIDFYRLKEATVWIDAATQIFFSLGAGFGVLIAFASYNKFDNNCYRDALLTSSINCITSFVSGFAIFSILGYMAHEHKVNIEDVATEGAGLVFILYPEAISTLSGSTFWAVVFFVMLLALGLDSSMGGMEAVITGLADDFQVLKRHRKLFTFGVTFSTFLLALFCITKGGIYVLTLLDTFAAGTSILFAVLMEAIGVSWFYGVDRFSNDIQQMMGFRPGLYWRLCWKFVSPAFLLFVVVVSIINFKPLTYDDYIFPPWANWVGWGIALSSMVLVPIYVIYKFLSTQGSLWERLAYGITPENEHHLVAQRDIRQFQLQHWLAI
Description: The human recombinant transporter proteins dopamine (DAT), norepinephrine (NET) and serotonin (SERT) were selected for the in vitro assays. […] The radioligand binding assays were carried out at four different test concentrations and the test concentrations were 1 nM, 10 nM, 0.1 μM, and 1 μM.
as §2

[3] = molecular target: human recombinant serotonin transporter (SERT) (Homo sapiens (Human), UniProt P31645); assay: Radioligand binding assay, serotonin transporter (MDS Pharma); details: for nH (Hill coefficient): SERT, slope of the competitive binding curve
Description: as §1, §2

Row | SMILES | IC50 [1] | Ki [1] | nH (Hill coefficient) [1] | IC50 [2] | Ki [2] | nH (Hill coefficient) [2] | IC50 [3] | Ki [3] | nH (Hill coefficient) [3]
1 | CCOC(=O)C(CC)NC(CC(C)C)C1(c2ccc(Cl)cc2)CCC1 (stereo not drawn) [Compound 54b, Ethyl 2-(1-(1-(4-chlorophenyl)cyclobutyl)-3-methylbutylamino]butanoate] | 56.9 nM | 45.2 nM | 0.826 | 121 nM | 120 nM | 0.832 | 140 nM | 22.8 nM | 0.677
2 | CCC(NC(CC(C)C)C1(c2ccc(Cl)cc2)CCC1)C(=O)OCC(C)C (stereo not drawn) [Compound 54d, Isobutyl 2-(1-(1-(4-chlorophenyl)cyclobutyl)-3-methylbutylamino]butanoate] | 370 nM | 294 nM | 0.943 | 182 nM | 180 nM | 1.04 | 415 nM | 67.6 nM | 0.578
